Source: patent US8637484B2, “Modulation of growth hormone receptor expression and insulin-like growth factor expression” (Antisense Therapeutic Limited, priority 2003, dated 2014)
In the oligonucleotide strings, read from the 5' end, every base follows the letter of its sugar. An asterisk marks phosphorothioate; unmarked linkages are phosphodiester. Other units and linkages are bracketed, terminal groups are in braces. A string of capitals states the bases alone. e = 2'-O-(2-methoxyethyl) (MOE); [5mC] = 5-methylcytosine; d = 2'-deoxy (DNA)

What follows are substances tested on mouse growth hormone receptor mRNA (assay: Inhibition of mouse growth hormone receptor mRNA levels in b.END cells, quantitative real-time PCR). Settings: dose-response studies.
Format: cell-based
Design: % INHIB: concentration or dose not given beside the values
Experimental: The mouse brain endothelial cell line b.END was obtained from Dr. Werner Risau at the Max Plank Instititute (Bad Nauheim, Germany). b.END cells were routinely cultured in DMEM, high glucose (Gibco/Life Technologies, Gaithersburg, Md.) supplemented with 10% fetal calf serum (Gibco/Life Technologies, Gaithersburg, Md.). Cells were routinely passaged by trypsinization and dilution when they reached 90% confluence. Cells were seeded into 96-well plates (Falcon-Primaria #3872) at a density of 3000 cells/well for use in RT-PCR analysis.
When cells reached 65-75% confluency, they were treated with oligonucleotide. For cells grown in 96-well plates, wells were washed once with 100 μL OPTI-MEM™-1 reduced-serum medium (Invitrogen Corporation, Carlsbad, Calif.) and then treated with 130 μL of OPTI-MEM™-1 containing 3.75 μg/mL LIPOFECTIN™ (Invitrogen Corporation, Carlsbad, Calif.) and the desired concentration of oligonucleotide. Cells are treated and data are obtained in triplicate. After 4-7 hours of treatment at 37° C., the medium was replaced with fresh medium. Cells were harvested 16-24 hours after oligonucleotide treatment.
Total RNA was isolated using an RNEASY 96™ kit and buffers purchased from Qiagen Inc. (Valencia, Calif.) following the manufacturer's recommended procedures. Briefly, for cells grown on 96-well plates, growth medium was removed from the cells and each well was washed with 200 μL cold PBS. 150 μL Buffer RLT was added to each well and the plate vigorously agitated for 20 seconds. 150 μL of 70% ethanol was then added to each well and the contents mixed by pipetting three times up and down. The samples were then transferred to the RNEASY 96™ well plate attached to a QIAVAC™ manifold fitted with a waste collection tray and attached to a vacuum source. Vacuum was applied for 1 minute. 500 μL of Buffer RW1 was added to each well of the RNEASY 96™ plate and incubated for 15 minutes and the vacuum was again applied for 1 minute. An additional 500 μL of Buffer RW1 was added to each well of the RNEASY 96™ plate and the vacuum was applied for 2 minutes. 1 mL of Buffer RPE was then added to each well of the RNEASY 96™ plate and the vacuum applied for a period of 90 seconds. The Buffer RPE wash was then repeated and the vacuum was applied for an additional 3 minutes. The plate was then removed from the QIAVAC™ manifold and blotted dry on paper towels. The plate was then re-attached to the QIAVAC™ manifold fitted with a collection tube rack containing 1.2 mL collection tubes. RNA was then eluted by pipetting 140 μL of RNAse free water into each well, incubating 1 minute, and then applying the vacuum for 3 minutes.
Quantitation of growth hormone receptor mRNA levels was accomplished by real-time quantitative PCR using the ABI PRISM™ 7600, 7700, or 7900 Sequence Detection System (PE-Applied Biosystems, Foster City, Calif.) according to manufacturer's instructions. This is a closed-tube, non-gel-based, fluorescence detection system which allows high-throughput quantitation of polymerase chain reaction (PCR) products in real-time. As opposed to standard PCR in which amplification products are quantitated after the PCR is completed, products in real-time quantitative PCR are quantitated as they accumulate. This is accomplished by including in the PCR reaction an oligonucleotide probe that anneals specifically between the forward and reverse PCR primers, and contains two fluorescent dyes. A reporter dye (e.g., FAM or JOE, obtained from either PE-Applied Biosystems, Foster City, Calif., Operon Technologies Inc., Alameda, Calif. or Integrated DNA Technologies Inc., Coralville, Iowa) is attached to the 5′ end of the probe and a quencher dye (e.g., TAMRA, obtained from either PE-Applied Biosystems, Foster City, Calif., Operon Technologies Inc., Alameda, Calif. or Integrated DNA Technologies Inc., Coralville, Iowa) is attached to the 3′ end of the probe. […]
Work on “227509 (antisense eG*e[5mC]*eA*eG*eT*dT*d[5mC]*dT*dA*dT*d[5mC]*dA*dG*dA*dA*e[5mC]*eT*eT*eT*eG) [compound 227509]” yielded an IC50 of about 12.5 nM.

Same assay, conditions: mouse growth hormone receptor mRNA, b.END cells, averages from three experiments
With “227447 (antisense eG*e[5mC]*eT*eG*eG*dT*dG*dT*dA*dG*d[5mC]*d[5mC]*dT*d[5mC]*dA*e[5mC]*eT*eT*e[5mC]*e[5mC]) [compound 227447]” the “% INHIB” value was 77%. For “227470 (antisense e[5mC]*eT*e[5mC]*e[5mC]*eA*dA*dG*dG*dA*dT*dA*d[5mC]*d[5mC]*dA*dG*e[5mC]*eT*eG*eA*eT) [compound 227470]”, the “% INHIB” value was 82%. For “227467 (antisense e[5mC]*eA*eT*e[5mC]*eA*dT*dT*dG*dT*dA*dG*dA*dA*dG*dT*e[5mC]*eG*eG*eG*eT) [compound 227467]”, the “% INHIB” value was 33%. “227473 (antisense eA*eA*eG*eT*e[5mC]*dA*dA*dT*dG*dT*dT*dT*dG*d[5mC]*d[5mC]*eA*eG*eT*eG*eA) [compound 227473]” was tested, and the “% INHIB” value was 71%. “227450 (antisense eT*eG*eG*e[5mC]*eT*dT*dT*d[5mC]*d[5mC]*d[5mC]*dT*dT*dT*dT*dA*eG*e[5mC]*eA*eT*eA) [compound 227450]” was tested, and the “% INHIB” value was 71%. For “227462 (antisense eG*e[5mC]*eT*eT*eT*dG*dA*dA*dA*dA*dT*dA*dT*dA*dA*e[5mC]*eT*eA*e[5mC]*eA) [compound 227462]”, the “% INHIB” value was 31%. “227519 (antisense eT*e[5mC]*eA*e[5mC]*eA*d[5mC]*d[5mC]*dT*dA*d[5mC]*d[5mC]*dT*dT*dT*dG*e[5mC]*eT*eG*e[5mC]*eT) [compound 227519]” was tested, and the “% INHIB” value was 44%. For “227495 (antisense eT*e[5mC]*e[5mC]*eT*eG*dA*dA*d[5mC]*dT*dG*d[5mC]*dA*dA*dA*dA*eG*e[5mC]*e[5mC]*eA*e[5mC]) [compound 227495]”, the “% INHIB” value was 47%. In the case of “227443 (antisense eT*eG*e[5mC]*eT*eT*dG*dG*d[5mC]*dA*dG*d[5mC]*dT*d[5mC]*dG*dT*eG*eG*eG*eT*eT) [compound 227443]”, the “% INHIB” value is reported as 0%. With “227485 (antisense e[5mC]*eG*eT*eG*eG*dT*dG*dT*dA*dG*dT*d[5mC]*dT*dG*dG*eG*eA*e[5mC]*eA*eG) [compound 227485]” the “% INHIB” value was 45%. “227451 (antisense eA*eT*eG*eA*eG*d[5mC]*dA*dA*dT*dT*d[5mC]*dT*dT*dG*d[5mC]*eA*eG*e[5mC]*eT*eT) [compound 227451]” was tested, and the “% INHIB” value was 49%. With “227478 (antisense eT*eT*eT*eT*eT*dG*dG*d[5mC]*dA*dT*d[5mC]*dT*dG*dA*d[5mC]*eT*e[5mC]*eA*e[5mC]*eA) [compound 227478]” the “% INHIB” value was 68%. For “227509 (antisense eG*e[5mC]*eA*eG*eT*dT*d[5mC]*dT*dA*dT*d[5mC]*dA*dG*dA*dA*e[5mC]*eT*eT*eT*eG) [compound 227509]”, the “% INHIB” value was 82%. “227511 (antisense e[5mC]*e[5mC]*eA*e[5mC]*eG*d[5mC]*dA*d[5mC]*d[5mC]*d[5mC]*dA*d[5mC]*dA*dA*dG*e[5mC]*eG*eG*eA*eT) [compound 227511]” was tested, and the “% INHIB” value was 71%. In the case of “227518 (antisense e[5mC]*eA*e[5mC]*eG*eG*d[5mC]*dT*dT*dA*d[5mC]*d[5mC]*dT*dA*dT*dT*eT*e[5mC]*eG*eT*e[5mC]) [compound 227518]”, the “% INHIB” value is reported as 6%. In the case of “227494 (antisense e[5mC]*eA*eA*eA*eA*dG*d[5mC]*d[5mC]*dA*d[5mC]*d[5mC]*dT*dG*dA*dT*eT*eG*eT*eT*eT) [compound 227494]”, the “% INHIB” value is reported as 56%. In the case of “227516 (antisense eT*eT*eG*eG*e[5mC]*dT*dT*dT*d[5mC]*d[5mC]*d[5mC]*dT*dG*dG*dA*eG*eG*eT*eT*e[5mC]) [compound 227516]”, the “% INHIB” value is reported as 57%. With “227444 (antisense eA*eT*eG*eG*e[5mC]*dT*dG*d[5mC]*dG*d[5mC]*d[5mC]*dT*dG*d[5mC]*dT*eT*eG*eG*e[5mC]*eA) [compound 227444]” the “% INHIB” value was 53%.
